According to patent publication US20240287019A1, “T-TYPE CALCIUM CHANNEL BLOCKER” (KINKI UNIVERSITY, priority 2021, published 2024):
pIC50: −log10 of the molar value. One block for each compound: values may come before it.

How the values were obtained:
[1] = molecular target: T1, human Cav3.2 T-type calcium channels (Homo sapiens, UniProt O95180); experiment: Whole-cell patch clamp, T channel current in HEK 293 cells forcibly expressing human Cav3.2; type: cell-based; details: perfusion addition method; from percentage change in T-channel current before and after addition; n=3 to 17
T1 construct: expressed in transfected cells; host or cells: HEK 293 cells
T1 sequence (O95180 whole entry, the tested form may be a part): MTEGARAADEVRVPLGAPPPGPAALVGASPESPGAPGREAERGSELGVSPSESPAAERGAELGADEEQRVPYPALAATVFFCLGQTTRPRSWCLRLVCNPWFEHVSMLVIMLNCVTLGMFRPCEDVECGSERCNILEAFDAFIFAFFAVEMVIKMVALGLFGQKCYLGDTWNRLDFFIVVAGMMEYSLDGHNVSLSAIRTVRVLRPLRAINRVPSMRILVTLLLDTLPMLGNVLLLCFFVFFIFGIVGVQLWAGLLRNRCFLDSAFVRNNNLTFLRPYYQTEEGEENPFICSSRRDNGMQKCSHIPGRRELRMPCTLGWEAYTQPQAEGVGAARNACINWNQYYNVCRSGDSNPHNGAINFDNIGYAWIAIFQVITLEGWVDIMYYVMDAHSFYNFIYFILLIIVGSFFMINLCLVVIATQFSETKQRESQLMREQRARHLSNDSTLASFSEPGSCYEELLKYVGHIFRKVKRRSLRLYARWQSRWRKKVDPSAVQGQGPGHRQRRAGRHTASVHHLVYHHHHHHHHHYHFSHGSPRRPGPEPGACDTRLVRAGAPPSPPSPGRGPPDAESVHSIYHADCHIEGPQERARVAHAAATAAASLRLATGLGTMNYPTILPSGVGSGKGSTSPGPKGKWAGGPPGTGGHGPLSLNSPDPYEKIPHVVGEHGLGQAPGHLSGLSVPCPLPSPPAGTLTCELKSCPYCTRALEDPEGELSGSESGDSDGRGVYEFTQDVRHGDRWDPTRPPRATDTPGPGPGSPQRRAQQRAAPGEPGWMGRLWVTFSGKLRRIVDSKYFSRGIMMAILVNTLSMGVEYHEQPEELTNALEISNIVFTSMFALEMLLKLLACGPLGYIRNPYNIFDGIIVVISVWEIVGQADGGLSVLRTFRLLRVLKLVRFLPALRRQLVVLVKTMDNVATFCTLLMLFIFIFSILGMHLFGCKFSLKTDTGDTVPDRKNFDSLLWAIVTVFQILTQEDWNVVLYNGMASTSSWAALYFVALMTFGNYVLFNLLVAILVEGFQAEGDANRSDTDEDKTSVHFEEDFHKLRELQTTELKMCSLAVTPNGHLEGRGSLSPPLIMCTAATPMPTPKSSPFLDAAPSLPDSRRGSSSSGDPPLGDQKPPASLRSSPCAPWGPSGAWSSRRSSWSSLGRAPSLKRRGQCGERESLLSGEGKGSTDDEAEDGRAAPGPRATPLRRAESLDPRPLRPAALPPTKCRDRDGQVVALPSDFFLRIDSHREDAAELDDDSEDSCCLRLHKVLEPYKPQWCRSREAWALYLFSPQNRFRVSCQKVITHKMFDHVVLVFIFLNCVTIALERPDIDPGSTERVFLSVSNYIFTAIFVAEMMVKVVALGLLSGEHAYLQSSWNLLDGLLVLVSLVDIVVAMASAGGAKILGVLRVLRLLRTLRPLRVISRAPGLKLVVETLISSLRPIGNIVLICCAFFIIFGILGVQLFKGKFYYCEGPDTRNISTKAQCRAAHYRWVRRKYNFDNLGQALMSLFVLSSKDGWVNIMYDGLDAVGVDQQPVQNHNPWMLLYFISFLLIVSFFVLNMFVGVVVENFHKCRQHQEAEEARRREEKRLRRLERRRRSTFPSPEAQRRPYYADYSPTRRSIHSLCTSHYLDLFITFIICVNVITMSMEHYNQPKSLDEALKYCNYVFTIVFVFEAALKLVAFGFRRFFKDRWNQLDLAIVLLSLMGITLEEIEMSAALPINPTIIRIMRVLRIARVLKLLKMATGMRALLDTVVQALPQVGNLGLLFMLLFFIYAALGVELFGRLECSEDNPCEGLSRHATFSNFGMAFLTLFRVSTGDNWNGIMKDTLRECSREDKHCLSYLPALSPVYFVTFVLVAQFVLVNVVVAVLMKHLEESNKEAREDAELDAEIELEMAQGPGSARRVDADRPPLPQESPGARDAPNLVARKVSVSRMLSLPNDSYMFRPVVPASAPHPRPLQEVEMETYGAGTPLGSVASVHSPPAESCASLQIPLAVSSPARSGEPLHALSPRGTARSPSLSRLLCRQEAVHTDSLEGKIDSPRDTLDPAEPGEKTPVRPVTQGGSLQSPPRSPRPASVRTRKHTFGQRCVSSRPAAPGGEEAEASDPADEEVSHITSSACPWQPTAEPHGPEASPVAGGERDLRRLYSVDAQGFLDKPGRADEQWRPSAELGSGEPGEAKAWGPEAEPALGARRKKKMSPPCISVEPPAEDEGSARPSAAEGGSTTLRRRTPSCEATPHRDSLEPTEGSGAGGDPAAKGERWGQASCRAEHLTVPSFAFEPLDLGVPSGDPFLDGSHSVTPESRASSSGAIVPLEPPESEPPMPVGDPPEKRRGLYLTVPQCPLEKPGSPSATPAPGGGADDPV
Method: The effect of the compound of the present invention on human Cav3.2 T-type calcium channels was evaluated by whole-cell patch clamp method. As a control (vehicle), DMSO solution was used.
Human kidney cell-derived cell line, HEK 293 cells, in which human Cav3.2 T-type calcium channels were forcibly expressed, were seeded into cell culture dishes using DMEM medium containing 10% fetal bovine serum and cultured at 37° C. under 5% CO2 conditions. In the whole-cell patch clamp method, the following solutions were used as extracellular and intracellular solutions, the holding potential is set at −80 mV, and the barium current flowing as an inward current in a potential jump from −80 mV to −20 mV was measured with a patch clamp amplifier and AD converter (Axon Instruments). In order to eliminate the influence of high-threshold activated calcium channels, the value obtained by subtracting the current at 150 ms after the start of stimulation from the peak current was used for data analysis as the T channel current (T-current). The data analysis was performed using pClamp8 (Axon Instruments).
As for test compounds, each compound dissolved in extracellular solution was added directly to the dishes (direct addition method) or added to the dishes by perfusion (perfusion addition method).
According to a similar method to the perfusion addition method of Test Example 1, the effect of each compound of the present invention on human Cav3.2 T-type channels was evaluated. As the test compounds, pimozide at each concentration of 0.01 μM, 0.1 μM, 0.3 μM, 1.0 μM and 3.0 μM, compound 5, compound 14 and compound 15 were used and the test compounds were added by perfusion.

[2] = system: mouse intrabuccal injection pruritus models (chloroquine); experiment: Mouse intrabuccal injection pruritus model, chloroquine as pruritogen; type: in vivo, mice; details: for Scratching bouts (counts/60 minutes) (n): mean ± standard error (n); for inhibition of the histamine-independent scratching bouts: 10 mg/kg, chloroquine, result in words
Method: (§1) In this test, the antipruritic effect of the present compound was studied using mouse intrabuccal injection pruritus models in which histamine or chloroquine is intra-buccally administered as a pruritogen. Compound 5 and compound 38 were used as the present compound, and saline comprising 1% DMSO and 5% Tween 80 was used as control. Compound 5 and compound 38 were dissolved into saline comprising 1% DMSO and 5% Tween 80 to adjust the concentration of each compound. Also, male ICR mice with a body weight of 23 to 40 g were used as experimental animals and the animals were freely given tap water and solid feed and was kept under 12-hour light/dark cycle at room temperature of about 24° C.
According to the method in Shimada SG & LaMotte R H (2008) Behavioral differentiation between itch and pain in mouse. Pain 139 (3): 681-687, histamine or chloroquine, which is a pruritogen, was dissolved into saline and the solution was administered into the buccal skin of each male ICR mouse and pruritus was induced to prepare mouse intrabuccal injection pruritus models. The mice were randomly divided into saline comprising 1% DMSO and 5% Tween 80 (Solvent 1)+saline (Solvent 2) administration group (control group), Solvent 1+histamine administration group, compound 5 (10 mg/kg)+histamine administration group, Solvent 1+chloroquine administration group, compound 5 (10 mg/kg)+chloroquine administration group, compound 38 (1 mg/kg)+chloroquine administration group, compound 38 (3 mg/kg)+chloroquine administration group and compound 38 (10 mg/kg)+chloroquine administration group (n=6 to 10). The mice in each group were anesthetized with isoflurane and their right cheek hairs were shaved a few days before the experiment. On the day of the experiment, the mice were placed in an acrylic observation cage (10×14×30 cm) with mirrors on all four sides and allowed to acclimate the environment for at least 30 minutes. After the acclimatization, saline in a volume of 10 μL/site, histamine in a volume of 300 μL/site or chloroquine in a volume of 100 μL/site was intradermally administered to the shaved cheeks of the mice without anesthesia, and their subsequent behavior was recorded on video for 60 minutes. Compound 5 (10 mg/kg), compound 38 (1 mg/kg, 3 mg/kg or 10 mg/kg) or Solvent 1 (10 mL/kg) was intraperitoneally administered 30 minutes before saline or the pruritogen was administered. At the later date, the video was replayed and the number of occurrences of the scratching bouts by the hind paws to the administration site (as pruritus response) was counted for 60 minutes to evaluate the antipruritic effect of the present compound.
The test results are shown in Table 5 to Table 7 and FIG. 8 to FIG. 10. Table 5 and FIG. 8 show the mean value±standard error (the total (n)) of the total counts of the scratching bouts by the hind paws to the administration site for 60 minutes after the administration in control group, Solvent 1+histamine administration group and compound 5 (10 mg/kg)+histamine administration group and the graph thereof, and Table 6 and FIG. 9 show the mean value±standard error (the total (n)) of the total counts of the scratching bouts by the hind paws to the administration site for 60 minutes after the intrabuccal administration on the right side in control group, Solvent 1+chloroquine administration group, compound 5(10 mg/kg)+chloroquine administration group and the graph thereof, and Table 7 and FIG. 10 show the mean value±standard error (the total (n)) of the total counts of the scratching bouts by the hind paws to the administration site for 60 minutes after the intrabuccal administration on the right side in control group, Solvent 1+chloroquine administration group, compound 38 (1 mg/kg)+chloroquine administration group, compound 38 (3 mg/kg)+chloroquine administration group and compound 38 (10 mg/kg)+chloroquine administration group and the graph thereof.

[3] = system: mouse Na2S intraplantar injection pain models; experiment: Mouse Na2S intraplantar injection pain model (von Frey pain threshold); type: in vivo, mice; details: for Pain Threshold: mean ± standard error
Method: In this test, the analgesic effect of the present compound was studied using mouse Na2S intraplantar injection pain models. Compound 5 was used as the present compound, and saline comprising 1% DMSO and 5% Tween 80 was used as vehicle.
Male ICR mice were received the intraplantar injection of 10 μmol/paw/10 μL of Na2S and T-type calcium channel-dependent pain was induced to prepare mouse Na2S intraplantar injection pain models. The mice were randomly divided into the vehicle+vehicle administration group (control group), vehicle+Na2S administration group, compound 5 (1 mg/kg)+Na2S administration group, compound 5 (3 mg/kg)+Na2S administration group and compound 5 (10 mg/kg)+Na2S administration group (n=7 to 11). Vehicle (V, 10 mL/kg) or 1, 3 or 10 mg/kg of compound 5 was intraperitoneally administered 30 minutes before Na2S was injected intraplantarlly in the hind paws of the mice.
Pain thresholds were measured every 15 minutes until 60 minutes after the administration of Na2S by the von Frey method to evaluate the analgesic effect of the present compound.

[4] = system: mouse Na2S intrabuccal injection pruritus models; experiment: Mouse Na2S intrabuccal injection pruritus model (scratching bouts and wipes); type: in vivo, mice
Method: In this test, the antipruritic and analgesic effects of the present compound was studied using mouse Na2S intrabuccal injection pruritus models. Compound 5 was used as the present invention and saline comprising 1% DMSO and 5% Tween 80 was used as vehicle.
Male ICR mice were received the intrabuccal injection of 3.8 μmol (300 μg/10 μL) of Na2S and T-type calcium channel-[…] pain was induced to prepare mouse Na2S intrabuccal injection pruritus models. 18 mice were randomly divided into vehicle+saline administration group (control group), vehicle+Na2S administration group and compound 5 (10 mg/kg)+Na2S administration group (6 mice per group). The mice in each group were anesthetized with isoflurane and their right cheek hairs were shaved the day or a few days before the experiment. On the day of the experiment, the mice were placed in an acrylic observation cage with mirrors on all four sides and allowed to acclimate the environment for at least 30 minutes. After the acclimatization, Na2S was intradermally administered to the shaved cheeks of the mice without anesthesia, and their subsequent behavior was recorded on video. Compound 5 (10 mg/kg) or vehicle (V, 10 mL/kg) was intraperitoneally administered 30 minutes before Na2S was administered. At the later date, the video was replayed and the number of occurrences of the scratching bouts by the hind paws to the administration site (as pruritus response) and the wipes (wiping) by the forepaws (as pain response) was counted for 60 minutes to evaluate the antipruritic and analgesic effects of the present compound.

[5] = system: mouse intrabuccal injection pruritus models (histamine); experiment: Mouse intrabuccal injection pruritus model, histamine as pruritogen; type: in vivo, mice
Method: as §1
According to the method in Shimada SG & LaMotte R H (2008) Behavioral differentiation between itch and pain in mouse. […] After the acclimatization, saline in a volume of 10 μL/site, histamine in a volume of 300 μL/site or chloroquine in a volume of 100 μL/site was intradermally administered to the shaved cheeks of the mice without anesthesia, and their subsequent behavior was recorded on video for 60 minutes. […] At the later date, the video was replayed and the number of occurrences of the scratching bouts by the hind paws to the administration site (as pruritus response) was counted for 60 minutes to evaluate the antipruritic effect of the present compound. […]

[6] = system: male ddY mice; experiment: Catalepsy-inducing effect (bar test) after administration in the lateral ventricle; type: in vivo; details: 8 nmol in the lateral ventricle; 30-180 minutes after administration; result in words
Description: In this test, the catalepsy-inducing effect of the present compound was studied to evaluate whether the present compound can inhibit side effects caused by the dopamine D2 receptor blockade. Compound 5 and compound 12 were used as the present compound and 2% DMSO solution was used as vehicle. Also, pimozide was used as the control drug.
16 male ddY mice were randomly divided into compound 5 administration group, compound 12 administration group, pimozide administration group and vehicle administration group (4 mice per group). The mice in each group were received the administration of 8 nmol (0.8 mM/10 μL) of compound 5, compound 12 and pimozide, and 10 μL of vehicle in the lateral ventricle. both forepaws of the mice were forced to place themselves on a horizontal iron bar (Height: 5 cm) and the time of keeping the posture (catalepsy) was measured to evaluate the presence or absence of catalepsy. The measurement was terminated when the forepaws touched the floor or when the mouse was on the bar.

[7] = 10 mg/kg i.p. + Na2S, result in words
[8] = 10 mg/kg intraperitoneally 30 minutes before Na2S, mean ± standard error, 6 mice

SMILES: O=c1[nH]c2ccccc2n1C1CCN(CCCC(c2ccc(F)cc2)c2ccc(F)cc2)CC1 [Pimozide, 1-{1-[4,4-Bis(4-fluorophenyl)butyl]piperidin-4-yl}-1,3-dihydro-2H-benzimidazol-2-one, reference compound]
- pIC50 [1]: 6.80

SMILES: O=c1n(CCCCc2ccccc2)c2ccccc2n1C1CCN(CCCc2ccccc2)CC1 [Compound 14, 1-(4-Phenylbutyl)-3-(1-(3-phenylpropyl)piperidin-4-yl)-1H-benzo[d]imidazol-2(3H)-one]
- pIC50 [1]: 6.47

SMILES: O=c1n(CCCCc2ccccc2)c2ccccc2n1C1CCN(CCCCc2ccccc2)CC1 [Compound 5, 1-(4-phenylbutyl)-3-(1-(4-phenylbutyl)piperidin-4-yl)-1H-benzo[d]imidazol-2(3H)-one]
- Scratching bouts (counts/60 minutes) (n) ([2]; 10 mg/kg i.p. 30 minutes before chloroquine, Table 6): 24.9 ± 5.5 (10) counts/60 minutes
- inhibition of the histamine-independent scratching bouts [2]: strongly inhibited
- Pain Threshold ([3]; 1 mg/kg i.p. + Na2S, 15 minutes after administration): 0.317 ± 0.082 g
- Pain Threshold ([3]; 1 mg/kg i.p. + Na2S, 30 minutes after administration): 0.296 ± 0.078 g
- Pain Threshold ([3]; 3 mg/kg i.p. + Na2S, 15 minutes after administration): 0.347 ± 0.079 g
- Pain Threshold ([3]; 3 mg/kg i.p. + Na2S, 30 minutes after administration): 0.417 ± 0.064 g
- Pain Threshold ([3]; 10 mg/kg i.p. + Na2S, 15 minutes after administration): 0.514 ± 0.054 g
- Pain Threshold ([3]; 10 mg/kg i.p. + Na2S, 30 minutes after administration): 0.604 ± 0.049 g
- inhibition of pain ([3]; compound 5 administration group + Na2S, result in words): pain was inhibited
- pIC50 [1]: 6.34
- inhibition of pain [4, 7]: significantly inhibited
- inhibition of pruritus [4, 7]: significantly inhibited
- Scratching bouts (counts/60 minutes) [4, 8]: 36.2 ± 9.5 counts/60 minutes
- Wipes (counts/60 minutes) [4, 8]: 30.7 ± 4.0 counts/60 minutes
- Scratching bouts (counts/60 minutes) (n) ([5]; 10 mg/kg i.p. 30 minutes before histamine, mean ± standard error (n)): 13.3 ± 5.0 (7) counts/60 minutes
- inhibition of the histamine-dependent scratching bouts ([5]; 10 mg/kg, result in words): strongly inhibited
- catalepsy (keeping time of posture) [6]: catalepsy was induced

SMILES: O=c1n(CCCCc2cccc(F)c2)c2ccccc2n1C1CCN(CCCCc2cccc(F)c2)CC1 [Compound 38, 1-(4-(3-Fluorophenyl)butyl)-3-(1-(4-(3-fluorophenyl)butyl)piperidin-4-yl)-1H-benzo[d]imidazol-2(3H)-one]
- Scratching bouts (counts/60 minutes) (n) ([2]; 1 mg/kg i.p. 30 minutes before chloroquine, Table 7): 73.0 ± 10.5 (6) counts/60 minutes
- Scratching bouts (counts/60 minutes) (n) ([2]; 3 mg/kg i.p. 30 minutes before chloroquine, Table 7): 50.7 ± 9.7 (6) counts/60 minutes
- Scratching bouts (counts/60 minutes) (n) ([2]; 10 mg/kg i.p. 30 minutes before chloroquine, Table 7): 28.8 ± 10.5 (8) counts/60 minutes
- inhibition of the histamine-independent scratching bouts [2]: strongly inhibited

- pIC50 [1]: 6.81
SMILES: O=C(CCCc1ccccc1)N1CCC(n2c(=O)n(CCCCc3ccccc3)c3ccccc32)CC1 [Compound 15, 1-(1-(4-Phenylbutanoyl)piperidin-4-yl)-3-(4-phenylbutyl)-1H-benzo[d]imidazol-2(3H)-one]
